For eleven molecules, MIC results are on record in DBAASP.

Some test systems named below: Escherichia coli K91BK; Micrococcus luteus; Saccharomyces cerevisiae; Acinetobacter baumannii; Enterococcus faecalis; Escherichia coli; Klebsiella pneumoniae; Pseudomonas aeruginosa; Staphylococcus aureus.
What all share (assay): ≥ marks a high value that may be exact or a test limit, other limits are often not marked, values filed in µg/mL are converted to µM
Assay [1] deals with Bacillus anthracis Sterne 34F2.
Assay [2] has as its system Bacillus subtilis var. niger ATCC 9372.
The test system of assay [3] is Escherichia coli ATCC 25922.
Assay [4] deals with Pseudomonas aeruginosa ATCC 15692.
Assay [5] has as its system Staphylococcus aureus ATCC 25923.
For assay [6], the system named is Micrococcus luteus ATCC 9341.
Assay [7] relates to Clavibacter michiganensis subsp. michiganensis DSM 46294.
The subject of assay [8] is Pectobacterium carotovorum subsp. carotovorum DSM 30168.
Assay [9] has as its system Pseudomonas corrugata DSM 7228.
For assay [10], the system named is Pseudomonas syringae pv. syringae DSM 10604.
Assay [11] concerns Pseudomonas syringae pv. tomato DC3000.
The subject of assay [12] is Staphylococcus aureus 90857.
The subject of assay [13] is Xanthomonas vesicatoria DSM 50861.
The test system of assay [14] is Staphylococcus epidermidis.
For assay [15], the system named is Cronobacter sakazakii DPC 6440.
The test system of assay [16] is Listeria monocytogenes LO28.

Values after ≈ are worked out from the molar mass of the structure shown. Bounds are passed on as bounds.

As a reminder, the MIC is the lowest concentration found to suppress growth. Take `CC[C@H](C)[C@H](NC(=O)[C@H](CCCCN)NC(=O)[C@H](CO)NC(=O)[C@H](Cc1ccccc1)NC(=O)[C@H](CC(C)C)NC(=O)[C@H](CCCCN)NC(=O)[C@H](CCC(=O)O)NC(=O)[C@H](CC(C)C)NC(=O)[C@H](CCCN=C(N)N)NC(=O)[C@H](CCCCN)NC(=O)[C@H](Cc1ccccc1)NC(C)=O)C(=O)N[C@@H](Cc1c[nH]c2ccccc12)C(=O)N[C@@H](CC(N)=O)C(=O)N[C@@H](Cc1c[nH]c2ccccc12)C(=O)N[C@@H](CCCCN)C(N)=O` [FKRLEKLFSKIWNWK]: the MIC is 14.9 µM (≈ 30.8 µg/mL) in [1], 6.25 µM (≈ 12.9 µg/mL) in [2] and at least 100 µM against Escherichia coli K91BK.
For `CC[C@H](C)[C@H](NC(=O)[C@H](Cc1ccccc1)NC(=O)CNC(=O)[C@H](CCCCN)NC(=O)[C@H](C)NC(=O)[C@H](Cc1ccccc1)NC(=O)[C@H](CCCCN)NC(=O)[C@H](CCCCN)NC(=O)[C@H](C)NC(=O)[C@H](CO)NC(=O)[C@H](Cc1cnc[nH]1)NC(=O)[C@H](C)NC(=O)[C@@H](NC(=O)[C@H](CCC(=O)O)NC(=O)[C@H](CCCCN)NC(=O)[C@H](CC(C)C)NC(=O)CN)C(C)C)C(=O)N[C@@H](CO)C(=O)NCC(=O)N[C@@H](CC(C)C)C(=O)N[C@H](C(=O)NCC(=O)N[C@@H](CO)C(=O)O)[C@@H](C)O` [GLKEVAHSAKKFAKGFISGLTGS], the MIC was 64 µM (≈ 149 µg/mL) in [3]; at least 32 µM in the assay with Micrococcus luteus; at least 256 µM in assay [4]; at least 128 µM in the assay on Saccharomyces cerevisiae; over 256 µM in assay [5].
For `CC[C@H](C)[C@H](NC(=O)[C@H](C)NC(=O)[C@H](CCCCN)NC(=O)[C@H](C)NC(=O)[C@H](C)NC(=O)[C@H](CCCCN)NC(=O)CNC(=O)[C@H](Cc1ccccc1)NC(=O)[C@H](C)NC(=O)[C@@H](NC(=O)CNC(=O)[C@H](C)NC(=O)[C@H](CCCCN)NC(=O)[C@@H](NC(=O)[C@H](C)NC(=O)[C@H](CCSC)NC(=O)CN)[C@@H](C)O)[C@@H](C)O)C(=O)N[C@H](C(=O)NCC(=O)N[C@@H](C)C(=O)N[C@@H](C)C(=O)N[C@@H](CC(C)C)C(=O)O)[C@@H](C)CC` [GMATKAGTAFGKAAKAIIGAAL] the same measures were 16 µM (≈ 32.3 µg/mL), 2 µM (≈ 4.04 µg/mL), at least 128 µM, at least 64 µM and over 256 µM.
Turning to `CC[C@H](C)[C@H](N)C(=O)N[C@@H](CC(C)C)C(=O)N1CCC[C@H]1C(=O)N[C@@H](C)C(=O)N[C@@H](CCCCN)C(=O)N[C@@H](Cc1c[nH]c2ccccc12)C(=O)N1CCC[C@H]1C(=O)N[C@@H](Cc1c[nH]c2ccccc12)C(=O)N[C@@H](Cc1c[nH]c2ccccc12)C(=O)N1CCC[C@H]1C(=O)N[C@@H](Cc1c[nH]c2ccccc12)C(=O)N[C@@H](CCCN=C(N)N)C(=O)N[C@@H](CCCN=C(N)N)C(N)=O` [ILPAKWPWWPWRR], the minimal inhibitory concentration (MIC) in assay [6] was found to be 0.4 µM (≈ 0.716 µg/mL).
As to `CC(=O)N[C@@H](CCCCN)C(=O)N[C@@H](CC(C)C)C(=O)N[C@@H](Cc1c[nH]c2ccccc12)C(=O)N[C@@H](CCCCN)C(=O)N[C@@H](CCCCN)C(=O)N[C@@H](Cc1c[nH]c2ccccc12)C(=O)N[C@@H](CCCCN)C(=O)N[C@@H](CCCCN)C(=O)N[C@@H](Cc1c[nH]c2ccccc12)C(=O)N[C@@H](CC(C)C)C(=O)N[C@@H](CCCCN)C(N)=O` [KLWKKWKKWLK], the MIC in assay [1] is at least 100 µM; in assay [2] it was 6.25 µM (≈ 10.1 µg/mL); with Escherichia coli K91BK it was at least 100 µM.
`CC[C@H](C)[C@H](NC(=O)[C@H](CCCN=C(N)N)NC(=O)[C@H](CCCN=C(N)N)NC(=O)[C@H](CC(C)C)NC(=O)[C@H](CC(N)=O)NC(=O)[C@H](CCCCN)NC(C)=O)C(=O)N[C@H](C(=O)N[C@@H](CCCN=C(N)N)C(=O)N[C@@H](CCCCN)C(=O)N[C@H](C(=O)N[C@H](C(=O)N[C@@H](Cc1cnc[nH]1)C(=O)N[C@H](C(=O)N[C@H](C(=O)N[C@@H](CCCCN)C(=O)N[C@@H](CCCCN)C(=O)N[C@@H](Cc1ccc(O)cc1)C(=O)NCC(N)=O)[C@@H](C)CC)[C@@H](C)CC)[C@@H](C)CC)[C@@H](C)CC)[C@@H](C)O` [KNLRRITRKIIHIIKKYG]: the values for the minimum inhibitory concentration (MIC) (in [1]; in assay [2]; against Escherichia coli K91BK) were 25 µM (≈ 57.3 µg/mL), 1.56 µM (≈ 3.58 µg/mL) and at least 100 µM, respectively.
With `CC[C@H](C)[C@H](NC(=O)[C@H](CC(C)C)NC(=O)[C@H](CCCN=C(N)N)NC(=O)[C@H](CCCN=C(N)N)NC(=O)[C@H](CC(C)C)NC(=O)[C@@H](NC(=O)[C@H](CCCN=C(N)N)NC(=O)[C@H](CCCN=C(N)N)NC(=O)[C@@H](NC(=O)[C@@H](NC(=O)[C@H](CCCN=C(N)N)NC(=O)[C@@H](N)CC(C)C)[C@@H](C)CC)[C@@H](C)CC)[C@@H](C)CC)C(N)=O` [LRIIRRILRRLI], the MIC was 1.57 µM (≈ 2.5 µg/mL) in assay [7]; 1.57 µM (≈ 2.5 µg/mL) in assay [8]; 1.57 µM (≈ 2.5 µg/mL) in assay [9]; 1.57 µM (≈ 2.5 µg/mL) in assay [10]; 0.628 µM (≈ 0.999 µg/mL) in [11]; 25 µM (≈ 39.8 µg/mL) in [12]. The molecule also returned an MIC in assay [13] of 0.628 µM (≈ 0.999 µg/mL).
In the case of `CC[C@H](C)[C@H](NC(=O)[C@H](CCCCN)NC(=O)[C@H](CCCCN)NC(=O)[C@H](CC(C)C)NC(=O)[C@H](CCCCN)NC(=O)[C@H](CCCN=C(N)N)NC(=O)[C@@H](N)CC(C)C)C(=O)N[C@@H](CC(C)C)C(=O)N[C@@H](CCCCN)C(=O)N[C@@H](CCCCN)C(=O)N[C@@H](CC(C)C)C(=O)N[C@@H](Cc1ccccc1)C(N)=O` [LRKLKKILKKLF], the MIC in assay [7] was 0.164 µM (≈ 0.25 µg/mL); in assay [8] it was 1.64 µM (≈ 2.5 µg/mL); in assay [9] it was 0.164 µM (≈ 0.25 µg/mL); in [10] it was 0.164 µM (≈ 0.25 µg/mL); in assay [11], 0.327 µM (≈ 0.5 µg/mL); in assay [12] it was 6.25 µM (≈ 9.54 µg/mL). In assay [13], this molecule yielded an MIC of 0.0654 µM (≈ 0.0999 µg/mL).
Consider `CC[C@H](C)[C@H](NC(=O)[C@@H](NC(=O)[C@H](CCCCN)NC(=O)[C@H](CCCCN)NC(=O)[C@@H](NC(=O)[C@@H](NC(=O)[C@H](CCCCN)NC(=O)[C@H](C)NC(=O)[C@H](CCCCN)NC(=O)[C@H](CCCCN)NC(=O)[C@H](CCCCN)NC(=O)[C@@H](N)CCCN=C(N)N)[C@@H](C)CC)[C@@H](C)CC)[C@@H](C)CC)C(N)=O` [RKKKAKIIKKII], for which the MIC in assay [7] is 6.82 µM (≈ 9.99 µg/mL); in assay [8], 6.82 µM (≈ 9.99 µg/mL); in assay [9], 6.82 µM (≈ 9.99 µg/mL); in assay [10], 0.682 µM (≈ 0.999 µg/mL); in assay [11], 6.82 µM (≈ 9.99 µg/mL); in [12], at least 62.5 µM. Moreover, the MIC in [13] stood at 6.82 µM (≈ 9.99 µg/mL).
As for `CC[C@H](C)[C@H](NC(=O)CNC(=O)[C@H](CCCN=C(N)N)NC(=O)[C@H](Cc1ccc(O)cc1)NC(=O)[C@H](CC(C)C)NC(=O)[C@H](Cc1cnc[nH]1)NC(=O)CNC(=O)[C@H](Cc1ccccc1)NC(=O)[C@@H](N)Cc1c[nH]c2ccccc12)C(=O)N[C@H](C(=O)N[C@@H](CO)C(=O)N[C@H](C(=O)N[C@H](C(=O)N[C@@H](CCCCN)C(=O)N[C@@H](Cc1cnc[nH]1)C(=O)N[C@H](C(=O)N[C@@H](Cc1cnc[nH]1)C(=O)NCC(=O)N[C@@H](CC(C)C)C(=O)N[C@@H](CC(C)C)C(=O)N[C@@H](CO)C(=O)NCC(=O)O)C(C)C)C(C)C)C(C)C)[C@@H](C)O` [WFGHLYRGITSVVKHVHGLLSG], the MIC against Acinetobacter baumannii came to 5.2 µM (≈ 12.8 µg/mL); in the assay with Enterococcus faecalis it was 10.3 µM (≈ 25.4 µg/mL); with Escherichia coli, 5.2 µM (≈ 12.8 µg/mL); against Klebsiella pneumoniae it was 21 µM (≈ 51.7 µg/mL); against Pseudomonas aeruginosa it was 10.3 µM (≈ 25.4 µg/mL); against Staphylococcus aureus, 20.6 µM (≈ 50.8 µg/mL). This molecule yielded a minimal inhibitory concentration (MIC) in [14] of 10.3 µM (≈ 25.4 µg/mL).
`CC[C@H](C)[C@H](NC(=O)[C@@H](N)Cc1c[nH]c2ccccc12)C(=O)N[C@@H](CCC(N)=O)C(=O)N[C@@H](C)C(=O)N[C@@H](CCCCN)C(=O)N[C@H](C(=O)N[C@@H](CCCCN)C(=O)N[C@H](C(=O)N[C@H](C(=O)N1CCC[C@H]1C(=O)N[C@@H](Cc1ccc(O)cc1)C(=O)N[C@H](C(=O)N[C@@H](CCCN=C(N)N)C(=O)N[C@@H](Cc1ccc(O)cc1)C(=O)N[C@@H](CC(C)C)C(=O)O)C(C)C)[C@@H](C)CC)C(C)C)[C@@H](C)O` [WIQAKTKVIPYVRYL]: the MIC in assay [15] was at least 39.1 µM; in assay [16], 9.77 µM (≈ 18.3 µg/mL).
